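Dose response: 5 concentrations. Exposure: 48 h. Format: 96-well plates. Endpoint: linear interpolation; highest concentration if not reached. GI50 = concentration required for 50% inhibition of growth. At the TGI there is no net growth.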
Key:
Assay in all cases: inhibition of tumour cell growth, NCI panel, 48 h
[1] = test system: SF-268 CNS
[2] = test system: SK-MEL-28 melanoma
[3] = test system: UACC-257 melanoma
[4] = test system: SK-MEL-5 melanoma
[5] = test system: OVCAR-5 ovarian
[6] = test system: UO-31 renal
[7] = test system: SF-539 CNS
[8] = test system: NCI-H23 lung
[9] = test system: ACHN renal
[10] = test system: U251 CNS

| SMILES | GI50 [1] | TGI [1] | GI50 [2] | TGI [2] | GI50 [3] | TGI [3] | GI50 [4] | TGI [4] | GI50 [5] | TGI [5] | GI50 [6] | TGI [6] | GI50 [7] | TGI [7] | GI50 [8] | TGI [8] | GI50 [9] | TGI [9] | GI50 [10] | TGI [10] |
| --- | --- | --- | --- | --- | --- | --- | --- | --- | --- | --- | --- | --- | --- | --- | --- | --- | --- | --- | --- | --- |
| COc1cccc(/C=C/C(=O)c2cccc(Nc3nc(Nc4ccccc4)nc(Nc4ccccc4)n3)c2)c1 | 20.9 µM | > 89.9 µM | 20.8 µM | 56.2 µM | > 56 µM | > 100 µM | 13 µM | > 77.1 µM | 26.8 µM | > 86.3 µM | 7.36 µM | 57.5 µM | 15.6 µM | 34.4 µM | 21.3 µM | > 100 µM | 67.3 µM | > 100 µM | 9.5 µM | > 73.8 µM |
| Nc1cc2cccc[n+]2c2cc(Cl)ccc12 | 4.03 µM | 21.7 µM | 14.9 µM | 37.3 µM | 3.75 µM | 20.2 µM | 10.4 µM | 23.2 µM | 25.7 µM | – | 43.6 µM | – | 14.6 µM | 83.2 µM | 13.2 µM | 53.6 µM | 34.6 µM | – | 4.56 µM | 25.4 µM |
| CC(=O)NC(CCCNCc1ccccc1)C(=O)NCc1ccccc1 (configuration not stated) | – | > 100 µM | – | > 100 µM | – | > 100 µM | – | > 100 µM | – | > 100 µM | – | > 100 µM | – | > 100 µM | – | > 100 µM | – | > 100 µM | – | > 100 µM |
| C[C@H](Nc1ncnc2nc[nH]c12)c1cc2cccc(Cl)c2c(=O)n1-c1ccccc1 | 22.6 µM | > 100 µM | 11.8 µM | > 100 µM | 8.57 µM | > 100 µM | 25.8 µM | > 100 µM | 21.4 µM | > 100 µM | 1.67 µM | > 75.3 µM | 12.5 µM | > 96 µM | 82.1 µM | > 100 µM | 5 µM | > 100 µM | 11.8 µM | > 100 µM |
| Cc1occc1C(=S)Nc1ccc(Cl)c(COC(C)(C)C)c1 | – | 35.9 µM | – | 30.1 µM | – | 31.3 µM | – | 33.4 µM | – | 50.6 µM | – | 26 µM | – | 31.1 µM | – | 35.7 µM | – | 31.1 µM | – | 28.9 µM |
| CCN(CC)CCn1ccc(=O)c2cc3c(=O)ccn(CCN(CC)CC)c3c(C)c21 | – | 17.2 µM | – | 35.1 µM | – | 33.9 µM | – | 29.1 µM | – | 29.9 µM | – | 17.1 µM | – | 24.2 µM | – | 19.3 µM | – | 20.1 µM | – | 19.7 µM |
| COC(=O)[C@]12CC[C@@H](C)[C@H](C)[C@@H]1C1=CC[C@@H]3[C@@]4(C)C[C@@H](OC(C)=O)[C@H](O)[C@@](C)(COC(C)=O)[C@@H]4[C@H](O)C[C@@]3(C)[C@]1(C)CC2 | 3.11 µM | 13.6 µM | 2.42 µM | 6.7 µM | 2.06 µM | 5.92 µM | 1.78 µM | 3.66 µM | 2.23 µM | 7.61 µM | 2.01 µM | 7.2 µM | 3.47 µM | 13.3 µM | 2.73 µM | 8.44 µM | 2.83 µM | 9.17 µM | 1.87 µM | 4.01 µM |
